Results: US6284768A, “Src family SH2 domain inhibitors” (Boehringer Ingelheim Pharmaceuticals, Inc., priority 1999, dated 2001)
Read-outs that look alike come from different tables or passages of the source.

How the values were obtained:
[1] = target: T1, p56lck GST-SH2 (lck SH2 domain) (Homo sapiens, UniProt P06239); test: Receptor-ligand equilibrium binding constants by surface plasmon resonance (biosensor), lck SH2 domain
T1 construct: GST (N)

[2] = test system: Inter-leukin 2 (IL-2) production by activated Human Primary T Lymphocytes; test: Primary T cell assay: inhibition of IL-2 production by activated human primary CD4 positive T lymphocytes; assay type: cell-based; details: Table 5, mean IC50 value, CD4 positive T cells activated with anti-CD3/anti-CD28, IL-2 by ELISA, read-out: IC50 (blocking IL-2 production)
Description: Summary of Primary T Cell Assay.
Inhibitors of the lck SH2 domain were assayed for their ability to block Inter-leukin 2 (IL-2) production by activated Human Primary T Lymphocytes. Peripheral blood mononuclear cells were isolated from whole blood by centrifugation in ficoll-Pague partitioning medium. CD4 positive cells were purified using negative selection. […] The compounds, at the appropriate dilutions, were added, and the cells were incubated for 60 minutes at 37° C. The CD4 positive T cells were then activated by the addition of anti-CD3 (60 ng/mL), anti CD28 (500 ng/mL) and goat anti mouse IgG coated beads, and incubated overnight at 37° C. The cells were pelleted, and the supernatents assayed for IL-2 by ELISA.
As SH2 domain containing proteins are intracellular, any therapeutic agent must be able to cross biological membranes. […] These characteristics may be quantified by observing inhibition in IL-2 production in human blood CD4 positive T-lymphocytes after T cell receptor and CD28 cross-linking.

[3] = Table 1, compounds of formula (II)

T1 sequence (P06239 127-224 limits assumed): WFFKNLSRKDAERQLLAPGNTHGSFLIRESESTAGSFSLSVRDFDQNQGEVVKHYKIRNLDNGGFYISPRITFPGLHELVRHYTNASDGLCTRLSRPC

SMILES | Kd [1, 3] | IC50 [2] | IC50 ([2]; Homo sapiens, CD4 positive) | Kd ([1]; Table 2, compounds of formula (III))
COc1ccc(Cn2ccc(C)c(NC(=O)C(Cc3ccc(C(C)(C)C(=O)O)cc3)NC(=O)Cc3cccc4ccccc34)c2=O)cc1 (centres unmarked) [Compound 216] | 190 µM | 193 µM |  | 
CCC(C(=O)N[C@@H](Cc1ccc(C(C)(C)C(=O)O)cc1)C(=O)Nc1c(C)ccn(Cc2ccc(OC)cc2)c1=O)c1cccc2ccccc12 (some centres unmarked) [Compound 126] | 0.68 µM |  | 39 µM | 
COc1ccc(Cn2cc(Br)c(C)c(NC(=O)[C@H](Cc3ccc(C(C)(C)C(=O)O)cc3)NC(=O)Cc3ccc4ccccc4c3)c2=O)cc1 [Compound 220, 3-[2'-(S)-(2""-Naphthylacetyl)amino-3'-[4"-(1'"-carboxy-1'"-methyl)ethyl]benzene]propanoylamino-5-bromo-1-(4-methoxybenzyl)-4-methyl-2-pyridone] | 0.17 µM |  | 31 µM | 
Cc1ccn(CC2(c3ccccc3)CC2)c(=O)c1NC(=O)C(Cc1ccc(C(C)(C)C(=O)O)cc1)NC(=O)Cc1cccc2ccccc12 (centres unmarked) [Compound 213] | 2 µM |  | 166 µM | 
Cc1ccn(CC2CCCCC2)c(=O)c1NC(=O)C(Cc1ccc(C(C)(C)C(=O)O)cc1)NC(=O)Cc1cccc2ccccc12 (centres unmarked) [Compound 194] | 2.3 µM |  | 84 µM | 
COc1ccc(Cn2ccc(C)c(NC(=O)C(Cc3ccc(C(C)(C)C(=O)O)cc3)NC(=O)Cc3c(OC)ccc4ccccc34)c2=O)cc1 (centres unmarked) [Compound 187] | 0.18 µM |  | 52 µM | 
Cc1ccn(CC2(c3ccccc3)CC2)c(=O)c1NC(=O)C(Cc1ccc(C(C)(C)C(=O)O)cc1)NC(=O)Cc1ccc2ccccc2c1 (centres unmarked) [Compound 214] | 1.2 µM |  | 117 µM | 
COc1ccc(Cn2ncc(C)c(NC(=O)C(Cc3ccc(C(C)(C)C(=O)O)cc3)NC(=O)Cc3ccc4ccccc4c3)c2=O)cc1 (racemic) [Compound 242, 4-[2'-(R,S)-(2""-Naphthylacetyl)amino-3'-[4"-(1'"-carboxy-1'"-methyl)ethyl]benzene]propanoylamino-2-(4-methoxybenzyl)-5-methyl-3-pyridazinone] |  |  | 60 µM | 0.53 µM
COc1ccc(Cn2ccc(C)c(NC(=O)C(Cc3ccc(C4(C(=O)O)CCCC4)cc3)NC(=O)Cc3ccc4ccccc4c3)c2=O)cc1 (racemic) [Compound 108] | 2.8 µM |  | 69 µM | 
COc1ccc(Cn2ccc(C)c(NC(=O)C(Cc3ccc(C(C)(C)C(=O)O)cc3)NC(=O)C(C)(C)c3ccc(C(F)(F)F)cc3)c2=O)cc1 (centres unmarked) [Compound 217] | 1.3 µM |  | 70 µM | 
COc1ccc(Cn2ccc(C)c(NC(=O)[C@H](Cc3ccc(C(C)(C)C(=O)O)cc3)NC(=O)Cc3ccc(NCC(C)(C)C)cc3)c2=O)cc1 [Compound 132] | 0.25 µM |  | 141 µM | 
COc1ccc(Cn2ccc(C)c(NC(=O)C(Cc3ccc(C(C)(C)C(=O)O)cc3)NC(=O)Cc3cccc4ccccc34)c2=O)cc1 (centres unmarked) [Compound 169] | 0.52 µM |  | 116 µM | 
Cc1ccn(CC2CCCCC2)c(=O)c1NC(=O)C(Cc1ccc(C(C)(C)C(=O)O)cc1)NC(=O)C(C)(C)c1ccc2ccccc2c1 (centres unmarked) [Compound 196] | 5.4 µM |  | 29 µM | 
COc1ccc(Cn2ccc(C)c(NC(=O)[C@H](Cc3ccc(C(C)(C)C(=O)O)cc3)NC(=O)Cc3ccc(NCc4ccccc4)cc3)c2=O)cc1 [Compound 130] | 0.84 µM |  | 181 µM | 

Now from value to molecule:

Kd [1, 3] | IC50 [2] | IC50 ([2]; Homo sapiens, CD4 positive) | Kd ([1]; Table 2, compounds of formula (III)) | SMILES
0.51 µM |  | 64 µM |  | COc1ccc(Cn2ccc(C)c(NC(=O)[C@H](Cc3ccc(C(C)(C)C(=O)O)cc3)NC(=O)Cc3ccc(Br)c4ccccc34)c2=O)cc1 [Compound 111]
5.9 µM |  | 36 µM |  | Cc1ccn(CC2(c3ccccc3)CC2)c(=O)c1NC(=O)C(Cc1ccc(C(C)(C)C(=O)O)cc1)NC(=O)C(C)(C)c1ccc2ccccc2c1 (centres unmarked) [Compound 215]
4.6 µM |  | 60 µM |  | CCc1ccc(Cn2ccc(C)c(NC(=O)C(Cc3ccc(C(C)(C)C(=O)O)cc3)NC(=O)Cc3ccc4ccccc4c3)c2=O)cc1 (centres unmarked) [Compound 150]
1.6 µM |  | 207 µM |  | Cc1ccn(Cc2ccc(C(F)(F)F)cn2)c(=O)c1NC(=O)[C@H](Cc1ccc(C(C)(C)C(=O)O)cc1)NC(=O)Cc1ccc2ccccc2c1 [Compound 128]
2.5 µM |  | 82 µM |  | COc1ccc(Cn2ccc(C)c(NC(=O)C(Cc3ccc(C(C)(C)C(=O)O)cc3)NC(=O)C(C)(C)c3ccccc3)c2=O)cc1 (centres unmarked) [Compound 180]
0.63 µM |  | 82 µM |  | CCOc1ccc(Cn2ccc(C)c(NC(=O)C(Cc3ccc(C(C)(C)C(=O)O)cc3)NC(=O)Cc3cccc4ccccc34)c2=O)cc1 (centres unmarked) [Compound 140]
2.1 µM |  | 64 µM |  | Cc1ccn(CCCc2ccccc2)c(=O)c1NC(=O)C(Cc1ccc(C(C)(C)C(=O)O)cc1)NC(=O)Cc1cccc2ccccc12 (centres unmarked) [Compound 182]
1.5 µM |  | 60 µM |  | COc1ccc(Cn2ccc(C)c(NC(=O)[C@H](Cc3ccc(C(C)(C)C(=O)O)cc3)NC(=O)C(C)c3ccc(CC(C)C)cc3)c2=O)cc1 (some centres unmarked) [Compound 112]
1.7 µM |  | 75 µM |  | COc1ccc(Cn2ccc(C)c(NC(=O)C(Cc3ccc(C(C)(C)C(=O)O)cc3)NC(=O)Cc3ccc(-c4ccccc4)cc3)c2=O)cc1 (centres unmarked) [Compound 158]
0.8 µM |  | 279 µM |  | CCCCCCn1ccc(C)c(NC(=O)C(Cc2ccc(C(C)(C)C(=O)O)cc2)NC(=O)Cc2ccc(OC)cc2)c1=O (centres unmarked) [Compound 208]
2.8 µM |  | 107 µM |  | Cc1ccn(Cc2ncc(C(F)(F)F)cc2Cl)c(=O)c1NC(=O)[C@H](Cc1ccc(C(C)(C)C(=O)O)cc1)NC(=O)Cc1ccc2ccccc2c1 [Compound 129]
0.61 µM |  | 61 µM |  | COc1ccc(Cn2ccc(C)c(NC(=O)[C@H](Cc3ccc(C(C)(C)C(=O)O)cc3)NC(=O)C(C)(C)c3ccc(C(C)C)cc3)c2=O)cc1 [Compound 118]
0.78 µM |  | 41 µM |  | COc1ccc(Cn2ccc(C)c(NC(=O)C(Cc3ccc(C(C)(C)C(=O)O)cc3)NC(=O)C(C)(C)c3ccc(C(C)(C)C)cc3)c2=O)cc1 (centres unmarked) [Compound 186]
> 200 µM |  | 67 µM |  | COc1ccc(Cn2ccc(C)c(N(C)C(=O)C(Cc3ccc(C(C)(C)C(=O)O)cc3)NC(=O)Cc3ccc4ccccc4c3)c2=O)cc1 (centres unmarked) [Compound 151]
2.2 µM |  | 87 µM |  | Cc1ccn(CCc2ccccc2)c(=O)c1NC(=O)C(Cc1ccc(C(C)(C)C(=O)O)cc1)NC(=O)Cc1ccc2ccccc2c1 (centres unmarked) [Compound 200]
1.9 µM |  | 136 µM |  | CCCCCCn1ccc(C)c(NC(=O)C(Cc2ccc(C(C)(C)C(=O)O)cc2)NC(=O)COc2ccccc2)c1=O (centres unmarked) [Compound 205]
0.37 µM |  | 108 µM |  | COc1ccc(Cn2ccc(C)c(NC(=O)[C@H](Cc3ccc(C(C)(C)C(=O)O)cc3)NC(=O)Cc3c(C)cc(C)cc3C)c2=O)cc1 [Compound 117]
0.84 µM |  | 35 µM |  | CCC(CC)(C(=O)N[C@@H](Cc1ccc(C(C)(C)C(=O)O)cc1)C(=O)Nc1c(C)ccn(Cc2ccc(OC)cc2)c1=O)c1ccc2ccccc2c1 [Compound 123]
0.37 µM |  | 76 µM |  | Cc1ccn(Cc2ccc3c(c2)OCO3)c(=O)c1NC(=O)C(Cc1ccc(C(C)(C)C(=O)O)cc1)NC(=O)Cc1ccc2ccccc2c1 (centres unmarked) [Compound 155]
1.4 µM |  | 52 µM |  | COc1ccc(Cn2ccc(C)c(NC(=O)[C@H](Cc3ccc(C(C)(C)C(=O)O)cc3)NC(=O)[C@@H](C)c3ccc(CC(C)C)cc3)c2=O)cc1 [Compound 127]
